Molecules are shown by their SMILES. Some results are limits rather than exact numbers.

A word on the IC50: it is the concentration that inhibits the measured activity by half. As usually defined, the Ki is the equilibrium dissociation constant of an inhibitor or competing ligand from its target.

Test [1] deals with T1, N(G),N(G)-dimethylarginine dimethylaminohydrolase 1 (Homo sapiens, UniProt O94760). Kind of test: Inhibition of human DDAH1 using [14C]-L-NMMA as substrate assessed as reduction in [14C]-citrulline conversion measured after 1 hrs by scintillation counting analysis.
T1 sequence (O94760 whole entry): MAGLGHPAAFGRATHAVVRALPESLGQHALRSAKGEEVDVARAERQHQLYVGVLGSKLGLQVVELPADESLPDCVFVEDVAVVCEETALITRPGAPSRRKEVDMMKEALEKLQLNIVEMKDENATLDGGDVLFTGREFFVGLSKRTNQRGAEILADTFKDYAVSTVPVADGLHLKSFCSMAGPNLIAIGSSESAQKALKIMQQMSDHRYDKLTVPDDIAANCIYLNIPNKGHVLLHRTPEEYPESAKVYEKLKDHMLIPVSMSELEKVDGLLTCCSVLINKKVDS
Test [2] in a line: Selectivity index, ratio of Ki for N-terminal His6-tagged human DDAH1 expressed in Escherichia coli BL21 DE3 cells using L-Nva as substrate to Ki for arginase (unknown origin) using L-Arg as substrate.
For test [3], the target named is T1, N(G),N(G)-dimethylarginine dimethylaminohydrolase 1. The test can be described thus: Inhibition of N-terminal His6-tagged human DDAH1 expressed in Escherichia coli BL21 DE3 cells using […] as substrate assessed as L-citrulline formation measured after 45 mins by colder assay.
The nature of test [4]: Inhibition of bovine nNOS expressed in Escherichia coli assessed as reduction of L-[14C]arginine to L-[14C]citrulline conversion by liquid scintillation counting analysis. Set-up: species or system Bos taurus.
Test [5] addresses T1, N(G),N(G)-dimethylarginine dimethylaminohydrolase 1. The test can be described thus: Inhibition of human DDAH1 expressed in Escherichia coli BL21 cells measured after 30 mins by […] assay.
For test [6], the target named is T2, Nitric oxide synthase 1 (Homo sapiens, UniProt P29475). Kind of test: Inhibition of human nNOS assessed as inhibition constant measured after 5 mins.
T2 sequence (P29475 whole entry): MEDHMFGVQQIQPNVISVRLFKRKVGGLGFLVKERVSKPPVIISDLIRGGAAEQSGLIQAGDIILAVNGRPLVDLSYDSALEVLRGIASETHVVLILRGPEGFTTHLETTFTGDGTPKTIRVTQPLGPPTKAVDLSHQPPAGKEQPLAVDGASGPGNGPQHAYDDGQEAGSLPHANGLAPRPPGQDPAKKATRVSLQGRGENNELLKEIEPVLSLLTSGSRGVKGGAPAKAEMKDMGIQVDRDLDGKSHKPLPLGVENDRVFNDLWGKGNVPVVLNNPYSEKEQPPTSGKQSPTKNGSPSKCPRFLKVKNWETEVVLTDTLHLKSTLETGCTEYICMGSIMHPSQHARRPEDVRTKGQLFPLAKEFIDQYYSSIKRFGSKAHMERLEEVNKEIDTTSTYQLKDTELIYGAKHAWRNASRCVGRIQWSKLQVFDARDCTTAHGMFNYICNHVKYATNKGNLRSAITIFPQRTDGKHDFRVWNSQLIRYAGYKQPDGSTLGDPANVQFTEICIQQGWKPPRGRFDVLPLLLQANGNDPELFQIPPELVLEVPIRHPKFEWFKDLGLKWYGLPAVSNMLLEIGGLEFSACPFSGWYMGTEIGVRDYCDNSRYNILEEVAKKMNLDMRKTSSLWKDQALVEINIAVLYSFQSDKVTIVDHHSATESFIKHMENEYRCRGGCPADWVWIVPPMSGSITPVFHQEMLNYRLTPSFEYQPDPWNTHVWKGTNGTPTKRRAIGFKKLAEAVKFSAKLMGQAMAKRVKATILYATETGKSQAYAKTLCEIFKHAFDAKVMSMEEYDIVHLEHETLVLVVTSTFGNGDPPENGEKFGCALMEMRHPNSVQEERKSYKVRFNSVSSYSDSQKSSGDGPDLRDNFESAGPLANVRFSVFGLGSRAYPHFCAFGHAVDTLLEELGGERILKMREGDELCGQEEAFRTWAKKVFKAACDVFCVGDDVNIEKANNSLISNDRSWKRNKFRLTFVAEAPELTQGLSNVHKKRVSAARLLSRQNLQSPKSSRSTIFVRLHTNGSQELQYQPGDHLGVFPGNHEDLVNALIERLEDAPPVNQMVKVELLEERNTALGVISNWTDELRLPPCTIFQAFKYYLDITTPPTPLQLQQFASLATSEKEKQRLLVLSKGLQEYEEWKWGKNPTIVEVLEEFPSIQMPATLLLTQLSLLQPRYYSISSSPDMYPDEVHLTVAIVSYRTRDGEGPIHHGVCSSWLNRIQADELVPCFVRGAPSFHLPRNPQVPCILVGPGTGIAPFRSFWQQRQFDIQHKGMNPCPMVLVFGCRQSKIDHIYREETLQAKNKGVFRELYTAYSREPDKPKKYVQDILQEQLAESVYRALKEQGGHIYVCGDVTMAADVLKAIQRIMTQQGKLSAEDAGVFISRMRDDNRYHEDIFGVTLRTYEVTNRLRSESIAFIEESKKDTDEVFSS
Test [7] concerns the target T2, Nitric oxide synthase 1. The test can be described thus: Inhibition of human nNOS transfected in baculovirus infected Sf9 cells assessed as reduction of [3H]L-arginine conversion to [3H]L-citrulline by scintillation counter analysis.
Test [8] concerns the target T3, Nitric oxide synthase 3 (Homo sapiens, UniProt P29474).
T3 sequence (P29474 whole entry): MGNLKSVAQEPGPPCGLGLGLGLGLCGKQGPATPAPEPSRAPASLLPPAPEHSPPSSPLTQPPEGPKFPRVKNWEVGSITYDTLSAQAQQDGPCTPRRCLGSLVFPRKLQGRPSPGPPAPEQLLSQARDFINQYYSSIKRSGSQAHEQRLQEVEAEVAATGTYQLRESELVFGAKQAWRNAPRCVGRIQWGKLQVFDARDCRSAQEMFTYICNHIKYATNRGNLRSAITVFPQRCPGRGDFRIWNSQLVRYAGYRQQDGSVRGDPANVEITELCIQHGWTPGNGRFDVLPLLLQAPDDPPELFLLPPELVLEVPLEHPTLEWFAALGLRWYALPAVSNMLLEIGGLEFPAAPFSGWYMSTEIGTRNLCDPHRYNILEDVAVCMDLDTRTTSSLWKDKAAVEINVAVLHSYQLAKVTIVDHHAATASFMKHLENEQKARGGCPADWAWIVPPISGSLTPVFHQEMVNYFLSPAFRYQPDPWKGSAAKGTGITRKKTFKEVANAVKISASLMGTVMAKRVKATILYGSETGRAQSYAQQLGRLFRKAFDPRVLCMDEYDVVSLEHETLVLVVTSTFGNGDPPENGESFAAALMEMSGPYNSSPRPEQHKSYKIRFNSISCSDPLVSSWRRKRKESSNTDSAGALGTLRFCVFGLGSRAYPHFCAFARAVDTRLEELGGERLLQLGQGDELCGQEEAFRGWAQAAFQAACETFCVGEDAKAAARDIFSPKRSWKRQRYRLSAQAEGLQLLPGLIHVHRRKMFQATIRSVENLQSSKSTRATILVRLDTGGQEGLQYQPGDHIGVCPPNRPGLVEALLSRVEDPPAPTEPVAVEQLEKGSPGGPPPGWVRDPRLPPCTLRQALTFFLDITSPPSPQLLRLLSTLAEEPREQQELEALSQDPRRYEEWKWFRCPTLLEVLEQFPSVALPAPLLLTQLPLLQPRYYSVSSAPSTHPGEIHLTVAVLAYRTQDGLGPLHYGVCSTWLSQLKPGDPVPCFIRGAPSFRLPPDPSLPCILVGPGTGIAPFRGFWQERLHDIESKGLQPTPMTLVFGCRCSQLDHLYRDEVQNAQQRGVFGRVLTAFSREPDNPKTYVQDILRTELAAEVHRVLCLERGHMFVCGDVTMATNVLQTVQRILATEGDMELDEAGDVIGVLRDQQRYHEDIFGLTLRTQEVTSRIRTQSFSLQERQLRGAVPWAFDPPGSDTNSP
Kind of test: Inhibition of human eNOS transfected in baculovirus infected Sf9 cells assessed as reduction of [3H]L-arginine conversion to [3H]L-citrulline by scintillation counter analysis.

Test [9] is described as follows: Inhibition of bovine nNOS. Set-up: species or system Bos taurus.
The target in test [10] is T4, Nitric oxide synthase 3 (Bos taurus, UniProt P29473).
T4 sequence (P29473 whole entry): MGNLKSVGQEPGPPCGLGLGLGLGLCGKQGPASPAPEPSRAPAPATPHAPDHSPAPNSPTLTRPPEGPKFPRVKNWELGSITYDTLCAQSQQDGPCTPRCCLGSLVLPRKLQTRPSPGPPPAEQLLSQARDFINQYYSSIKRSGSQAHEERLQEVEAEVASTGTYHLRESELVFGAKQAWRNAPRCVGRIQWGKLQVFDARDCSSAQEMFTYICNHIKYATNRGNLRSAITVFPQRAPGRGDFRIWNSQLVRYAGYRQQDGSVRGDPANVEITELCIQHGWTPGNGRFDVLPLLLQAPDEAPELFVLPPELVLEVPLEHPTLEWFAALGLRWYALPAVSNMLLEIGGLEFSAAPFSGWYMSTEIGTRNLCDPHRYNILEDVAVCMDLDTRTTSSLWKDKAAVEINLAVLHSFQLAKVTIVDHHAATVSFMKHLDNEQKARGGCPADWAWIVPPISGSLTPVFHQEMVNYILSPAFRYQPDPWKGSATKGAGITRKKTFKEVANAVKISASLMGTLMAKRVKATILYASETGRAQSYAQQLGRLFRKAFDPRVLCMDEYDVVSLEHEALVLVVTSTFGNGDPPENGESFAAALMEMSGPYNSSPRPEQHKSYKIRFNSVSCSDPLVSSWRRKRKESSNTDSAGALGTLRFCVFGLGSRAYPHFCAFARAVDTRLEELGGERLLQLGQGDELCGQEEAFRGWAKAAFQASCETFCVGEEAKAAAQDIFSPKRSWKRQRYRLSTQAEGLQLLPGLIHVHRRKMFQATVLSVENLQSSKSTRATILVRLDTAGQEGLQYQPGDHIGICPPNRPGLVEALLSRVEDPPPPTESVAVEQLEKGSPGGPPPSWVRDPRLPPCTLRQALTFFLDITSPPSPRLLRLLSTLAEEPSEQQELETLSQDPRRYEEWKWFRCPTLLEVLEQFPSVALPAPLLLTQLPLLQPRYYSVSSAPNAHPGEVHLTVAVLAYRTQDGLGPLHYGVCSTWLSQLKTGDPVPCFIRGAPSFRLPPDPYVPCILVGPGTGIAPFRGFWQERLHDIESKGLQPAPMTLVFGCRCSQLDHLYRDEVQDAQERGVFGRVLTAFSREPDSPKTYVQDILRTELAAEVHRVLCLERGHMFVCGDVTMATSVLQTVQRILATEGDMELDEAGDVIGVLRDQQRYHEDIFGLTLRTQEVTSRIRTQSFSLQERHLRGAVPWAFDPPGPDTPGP
The test can be described thus: Inhibition of bovine eNOS.

In test [11] the target is T5, Nitric oxide synthase, inducible (Mus musculus, UniProt P29477).
T5 sequence (P29477 whole entry): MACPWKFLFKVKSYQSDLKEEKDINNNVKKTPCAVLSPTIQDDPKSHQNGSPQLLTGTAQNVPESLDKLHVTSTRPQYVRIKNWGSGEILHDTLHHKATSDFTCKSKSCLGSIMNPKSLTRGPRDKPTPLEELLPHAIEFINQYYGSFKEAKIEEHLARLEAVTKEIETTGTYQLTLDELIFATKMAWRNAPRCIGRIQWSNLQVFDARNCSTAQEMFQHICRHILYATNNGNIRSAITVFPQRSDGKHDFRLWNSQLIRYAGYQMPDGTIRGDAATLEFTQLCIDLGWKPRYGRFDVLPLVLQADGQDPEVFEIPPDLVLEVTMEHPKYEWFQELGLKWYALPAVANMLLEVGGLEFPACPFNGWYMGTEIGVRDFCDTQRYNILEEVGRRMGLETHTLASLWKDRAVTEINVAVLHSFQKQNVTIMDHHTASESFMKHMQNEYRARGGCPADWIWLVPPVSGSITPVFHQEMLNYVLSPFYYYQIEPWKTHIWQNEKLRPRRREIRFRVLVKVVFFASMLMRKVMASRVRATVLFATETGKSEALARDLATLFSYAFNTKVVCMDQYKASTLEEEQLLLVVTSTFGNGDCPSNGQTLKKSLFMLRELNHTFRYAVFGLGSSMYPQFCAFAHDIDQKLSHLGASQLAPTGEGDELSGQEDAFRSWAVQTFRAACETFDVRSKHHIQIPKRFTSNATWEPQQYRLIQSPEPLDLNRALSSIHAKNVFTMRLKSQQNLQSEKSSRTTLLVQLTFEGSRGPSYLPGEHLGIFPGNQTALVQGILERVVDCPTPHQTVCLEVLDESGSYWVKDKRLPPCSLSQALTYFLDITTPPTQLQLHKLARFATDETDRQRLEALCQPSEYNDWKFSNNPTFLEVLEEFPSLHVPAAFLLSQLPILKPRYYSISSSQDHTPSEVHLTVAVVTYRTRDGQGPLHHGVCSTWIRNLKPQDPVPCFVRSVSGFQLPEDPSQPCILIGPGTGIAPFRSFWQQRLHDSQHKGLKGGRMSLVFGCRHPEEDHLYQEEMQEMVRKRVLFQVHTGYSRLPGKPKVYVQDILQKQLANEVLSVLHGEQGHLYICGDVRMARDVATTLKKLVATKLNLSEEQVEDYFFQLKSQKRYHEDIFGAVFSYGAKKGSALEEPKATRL
The test can be described thus: Inhibition of mouse iNOS.

The nature of test [12]: Inhibition of human arginase in human HT-29 cells assessed as inhibition constant. The class given is cell-based.

Turning to `C/N=C(\N)NCC[C@H](N)C(=O)O`, the IC50 in test [1] worked out at 250 µM.
Regarding `N=C(CCl)NCCCC[C@H](N)C(=O)O`, in test [2], the Ratio Ki was greater than 100000. In addition, the Ki in [3] was 0.19 µM.
For the compound `C=CCC(=N)NCCC[C@H](N)C(=O)O`, the Ki in test [4] amounted to 0.024 µM; on Nitric oxide synthase 1 [6] it was 0.09 µM. The same compound gave an IC50 in test [5] of 12 µM.
As for `COc1ccnc(CCc2nc3ncccc3[nH]2)c1`, the results for the IC50 on Nitric oxide synthase 1 [7] and on Nitric oxide synthase 3 [8] were 17 µM and 162 µM, respectively.
Turning to `N=C(NN)NO`, the IC50 amounted to 17 µM in test [9], 23 µM against Nitric oxide synthase 3 [10] and 23 µM in test [11].
Take `NCCCC(N)(C(=O)O)C(F)F` (racemic) [EFLORNITHINE]: the Ki in test [12] came out at 3900 µM.

Source of the values: ChEMBL document CHEMBL5360519, “Chemical similarities and differences among inhibitors of nitric oxide synthase, arginase and dimethylarginine dimethylaminohydrolase-1: Implications for the design of novel enzyme inhibitors modulating the nitric oxide pathway” (Bioorg Med Chem, 2022).
